Test results from ChEMBL document CHEMBL1240370, “Effects of immunomodulatory and organism-associated molecules on the permeability of an in vitro blood-brain barrier model to amphotericin B and fluconazole” (Antimicrob Agents Chemother, 2010).

Tests used:
Type in all cases: ADME, cell-based, Bos taurus
Conditions in all cases: cattle, c6, 24 h
[1] = Permeability across BBMEC cocultured with rat C6 cell BBB model after 24 hrs in presence of 0.01 ug/ml TNF
[2] = Permeability across BBMEC cocultured with rat C6 cell BBB model after 24 hrs in presence of 0.01 ug/ml tacrolimus-506
[3] = Permeability across BBMEC cocultured with rat C6 cell BBB model after 24 hrs in presence of 0.1 ug/ml tacrolimus-506
[4] = Permeability across BBMEC cocultured with rat C6 cell BBB model after 24 hrs in presence of 0.1 ug/ml lipoteichoic acid
[5] = Permeability across BBMEC cocultured with rat C6 cell BBB model after 24 hrs in presence of 0.1 ug/ml lipopolysaccharide
[6] = Permeability across BBMEC cocultured with rat C6 cell BBB model after 24 hrs in presence of 1 ug/ml Dexamethasone
[7] = Permeability across BBMEC cocultured with rat C6 cell BBB model after 24 hrs in presence of 0.1 ug/ml TNF
[8] = Permeability across BBMEC co-cultured with rat C6 cell BBB model after 24 hrs in presence of 0.01 ug/ml interleukin-1
[9] = Permeability across BBMEC cocultured with rat C6 cell BBB model after 24 hrs in presence of 0.1 ug/ml interleukin-2
[10] = Permeability across BBMEC cocultured with rat C6 cell BBB model after 24 hrs in presence of 0.1 ug/ml Dexamethasone
[11] = Permeability across BBMEC cocultured with rat C6 cell BBB model after 24 hrs in presence of 1 ug/ml lipopolysaccharide

Measured: permeability

OC(Cn1cncn1)(Cn1cncn1)c1ccc(F)cc1F [FLUCONAZOLE]
permeable: [1] | [2] | [3] | [4] | [5] | [6] | [7] | [8] | [9] | [10] | [11]
